Measured values as given in patent US20230416228A1 (Forkhead Biotherapeutics, Inc., priority 2020, published 2023).

molecular target: T1, human FOXO1 (constitutively active form Thr24Ala, Ser256Ala, Ser319Ala) (Homo sapiens, UniProt Q12778, S256A/S319A/T24A); test: FOXO1 inhibitor activity assay: cell-based transcriptional (luciferase) reporter assay in HEK293 cells; conditions: HEK293 cells transfected with insulin response element firefly luciferase reporter, FOXO1 and Renilla luciferase; 10-point dose response 50 μM to 2.5 nM; 24 hours
T1 construct: expressed in transfected cells; host or cells: HEK293 cells transfected with pcDNA3.1 plasmid
T1 sequence (Q12778 whole entry T24A/S256A/S319A): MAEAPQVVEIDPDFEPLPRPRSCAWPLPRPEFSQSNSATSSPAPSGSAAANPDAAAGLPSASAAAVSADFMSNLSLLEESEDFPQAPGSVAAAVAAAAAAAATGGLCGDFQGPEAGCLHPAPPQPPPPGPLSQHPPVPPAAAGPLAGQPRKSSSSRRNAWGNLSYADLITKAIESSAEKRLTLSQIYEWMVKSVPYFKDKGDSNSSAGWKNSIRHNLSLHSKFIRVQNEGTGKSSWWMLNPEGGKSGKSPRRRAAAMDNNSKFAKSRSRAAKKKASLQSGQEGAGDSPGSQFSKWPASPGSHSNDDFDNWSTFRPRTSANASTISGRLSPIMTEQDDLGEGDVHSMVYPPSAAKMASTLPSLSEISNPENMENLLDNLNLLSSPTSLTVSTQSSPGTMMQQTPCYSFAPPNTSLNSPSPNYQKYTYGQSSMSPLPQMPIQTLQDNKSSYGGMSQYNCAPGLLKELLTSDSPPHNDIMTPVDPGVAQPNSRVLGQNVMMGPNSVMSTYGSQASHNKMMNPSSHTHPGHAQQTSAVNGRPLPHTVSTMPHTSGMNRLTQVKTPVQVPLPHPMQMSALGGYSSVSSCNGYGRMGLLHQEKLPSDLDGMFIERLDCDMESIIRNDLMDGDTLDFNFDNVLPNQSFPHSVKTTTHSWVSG
How it was run: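 IC50 and maximal inhibition were fitted by 4-parameter logistic regression on normalized firefly/Renilla luciferase ratios. The 0% reference used RFP in place of FOXO1, and the 100% reference was DMSO-only with all plasmids.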

Row | IC50 | Structure (SMILES)
1 | < 100 nM | Cn1nc(NC(=O)c2ccc(N3CCN4C(=O)OCC4C3)nc2)cc1-c1nc2ccccc2[nH]1 (centres unmarked) [Compound A-276, N-[5-(1H-benzimidazol-2-yl)-1-methyl-pyrazol-3-yl]-6-(3-oxo-5,6,8,8a-tetrahydro-1H-oxazolo[3,4-a]pyrazin-7-yl)pyridine-3-carboxamide]
2 | < 100 nM | COc1ccc(C(=O)Nc2cc(-c3nc4cc(OCCO)ccc4[nH]3)[nH]n2)cc1Cl [Compound A-277, 3-chloro-N-[5-[5-(2-hydroxyethoxy)-1H-benzimidazol-2-yl]-1H-pyrazol-3-yl]-4-methoxy-benzamide]
3 | 100 to 300 nM | C[C@@H]1CN(c2ccc(C(=O)Nc3cc(-c4nc5ccccc5[nH]4)n(C)n3)cn2)C[C@H](C)N1CCO [Compound A-278, N-[5-(1H-benzimidazol-2-yl)-1-methyl-pyrazol-3-yl]-6-[(3R,5S)-4-(2-hydroxyethyl)-3,5-dimethyl-piperazin-1-yl]pyridine-3-carboxamide]
4 | < 100 nM | Cn1nc(NC(=O)c2ccc(N3CCN4CCCC4C3)nc2)cc1-c1nc2ccccc2[nH]1 (centres unmarked) [Compound A-279]
5 | < 100 nM | Cn1nc(NC(=O)c2ccc(N3CCNC(C)(C)C3)nc2)cc1-c1nc2ccccc2[nH]1 [Compound A-280, N-[5-(1H-benzimidazol-2-yl)-1-methyl-pyrazol-3-yl]-6-(3,3-dimethyl-piperazin-1-yl)pyridine-3-carboxamide]
6 | < 100 nM | Cn1nc(NC(=O)c2ccc(N3CCNC4(CC4)C3)nc2)cc1-c1nc2ccccc2[nH]1 [Compound A-281, N-[5-(1H-benzimidazol-2-yl)-1-methyl-pyrazol-3-yl]-6-(4,7-diazaspiro[2.5]octan-7-yl)pyridine-3-carboxamide]
7 | < 100 nM | Cn1nc(NC(=O)c2ccc(N3CCC4(CC3)COC4)nc2)cc1-c1nc2ccccc2[nH]1 [Compound A-282, N-[5-(1H-benzimidazol-2-yl)-1-methyl-pyrazol-3-yl]-6-(2-oxa-7-azaspiro[3.5]nonan-7-yl)pyridine-3-carboxamide]
8 | < 100 nM | Cn1nc(NC(=O)c2ccc(N3CCC(O)(CCO)CC3)nc2)cc1-c1nc2ccccc2[nH]1 [Compound A-283, N-[5-(1H-benzimidazol-2-yl)-1-methyl-pyrazol-3-yl]-6-[4-hydroxy-4-(2-hydroxyethyl)-1-piperidyl]pyridine-3-carboxamide]
9 | 300 to 1000 nM | Cn1nc(NC(=O)c2ccc(N3CCN(C(=O)COCCO)CC3)nc2)cc1-c1nc2ccccc2[nH]1 [Compound A-287, N-[5-(1H-benzimidazol-2-yl)-1-methyl-pyrazol-3-yl]-6-[4-[2-(2-hydroxyethoxy)acetyl]piperazin-1-yl]pyridine-3-carboxamide]
10 | 100 to 300 nM | C[C@H]1CN(c2ccc(C(=O)Nc3cc(-c4nc5ccccc5[nH]4)n(C)n3)cn2)C[C@H](C)N1 [Compound A-288, N-[5-(1H-benzimidazol-2-yl)-1-methyl-pyrazol-3-yl]-6-[(3S,5S)-3,5-dimethylpiperazin-1-yl]pyridine-3-carboxamide]
11 | 100 to 300 nM | Cn1nc(NC(=O)c2ccc(N3CCN(C(=O)CN)CC3)nc2)cc1-c1nc2ccccc2[nH]1 [Compound A-289, 6-[4-(2-aminoacetyl)piperazin-1-yl]-N-[5-(1H-benzimidazol-2-yl)-1-methyl-pyrazol-3-yl]pyridine-3-carboxamide]

Row | Structure (SMILES) | IC50
12 | Cn1nc(NC(=O)c2ccc(N3CC4CC(C3)N4)nc2)cc1-c1nc2ccccc2[nH]1 [Compound A-284, N-[5-(1H-benzimidazol-2-yl)-1-methyl-pyrazol-3-yl]-6-(3,6-diazabicyclo[3.1.1]heptan-3-yl)pyridine-3-carboxamide] | 100 to 300 nM
13 | Cn1nc(NC(=O)c2ccc(N3C4CCC3COC4)nc2)cc1-c1nc2ccccc2[nH]1 [Compound A-285, N-[5-(1H-benzimidazol-2-yl)-1-methyl-pyrazol-3-yl]-6-(3-oxa-8-azabicyclo[3.2.1]octan-8-yl)pyridine-3-carboxamide] | < 100 nM
14 | Cn1nc(NC(=O)c2ccc(N3CC4CCC(C3)N4)nc2)cc1-c1nc2ccccc2[nH]1 [Compound A-286, N-[5-(1H-benzimidazol-2-yl)-1-methyl-pyrazol-3-yl]-6-(3,8-diazabicyclo[3.2.1]octan-3-yl)pyridine-3-carboxamide] | 100 to 300 nM
